Where a name gives a salt, the structure may show the parent alone. Read-outs that look alike come from different tables or passages of the source. One block for each compound: values may come before it.
Columns and labels:
[1] = Hydrolysis of the lactone form of statins in phosphate buffer saline of modified pH; format: physicochemical; settings: phosphate buffer saline (PBS), 37°C
Experimental: (§1) The pH of DMEM culture medium was adjusted to the target values (6.8–7.8) by adding an appropriate volume of either 1.0 N HCl or NaOH to a medium containing 20 mmol/L 4-2-hydroxyethyl-1-piperazineethanesulfonic acid (HEPES) buffer. The pH was measured at incubation temperature (37°C) by Mettler Toledo T50 pH titrator. […] After equilibration, minor adjustment in pH was occasionally required to reach the desired final pH.[35] Maintaining medium under constant CO2 environment of 5% stabilizes the pH through CO2-HCO3^− equilibrium.[36] The pH of phosphate buffer saline (PBS) was adjusted to the target values (6.8–7.8) in the same way without the need for equilibration.
(§2) The interconversion of the lactone and hydroxy acid forms of simvastatin and pravastatin was investigated by incubating tested compounds with human plasma, PBS, and DMEM culture medium of defined pH values at 37°C for a predetermined period of time. […] Human plasma and PBS samples were incubated in C25 classic incubator shaker (New Brunswick Scientific). For DMEM samples, CO2 supply was maintained at 5% throughout experiment in a tissue culture incubator. The pH of different matrices was adjusted to simulate physiological pH, acidosis, and alkalosis as described previously. After incubation, the interconversion reaction was stopped at predetermined time points by adding 50 μL of ice-cold ammonium acetate buffer (100 mmol/L, pH 4.5) to 100 μL of tested samples.[14] Six replicates were tested at each pH level, and the concentrations of parent and corresponding forms were measured by fully validated HPLC analytical methods.
(§3) Fully validated HPLC-UV methods were used to determine the concentrations of the lactone and the corresponding hydroxy acid forms of simvastatin and pravastatin after interconversion studies in human plasma, PBS, and DMEM culture medium of different pH. Samples for HPLC analysis were prepared by protein precipitation followed by liquid-liquid extraction. A 100 μL of human plasma or DMEM samples were pipetted into 1.5 mL Eppendorf tubes, and 50 μL of ammonium acetate buffer (100 mmol/L, pH 4.5) along with 10 μL of internal standard solution (4,4-dichlorodiphenyltrichloroethane [DDT] or griseofulvin 100 μg/mL for simvastatin and pravastatin containing samples, respectively) was added, and samples were vortex mixed for 30 seconds. Proteins were precipitated by the addition of 300 μL of chilled ACN, and samples were vortex mixed for 1 minute and then centrifuged at 900g for 10 minutes at 4°C. After centrifugation, the ACN layer was transferred into new glass test tubes, and 3 mL of methyl tert-butyl ether were added to each sample, vortex mixed for 10 minutes, and centrifuged at 1,615g for 10 minutes at 4°C. Finally, the upper organic layers were separated using glass Pasteur pipette, transferred into new glass tubes, and the contents of the tubes were evaporated to dryness using Techne Sample Concentrator (Bibby Scientific Ltd, UK). The dry residues were reconstituted with 100 μL of the mobile phase, vortex mixed, and placed into appropriate HPLC vials. Samples from PBS were extracted in the same way with one exception that the protein precipitation step was skipped.
(§4) HPLC analysis was performed using Waters Alliance 2965 separation module equipped with Waters 996 Photodiode Array Detector and integrated autosampler. System control and data processing were performed using Empower software. Chromatographic separation was achieved by ACE Excel Super C18 column (100 × 3 mm, 3 μm) under isocratic conditions with mobile phase consisting of ACN: 5 mmol/L ammonium acetate buffer, pH 4.5 (73:27 and 55:45, v/v for simvastatin and pravastatin samples, respectively). The flow rate was set at 0.4 mL/min for simvastatin and 0.3 mL/min for pravastatin samples. Samples temperature was kept at 4°C, and column temperature was set at 40°C. Chromatographic separation was monitored by photodiode array detector at 238 nm with an injection volume of 20 μL.

[2] = Interconversion / hydrolysis of the lactone form of statins in human plasma of modified pH; format: in vitro ADME; settings: for proportion of lactone converted to the hydroxy acid form: 50 μmol/L, 24 hours at 37°C; for half-life at 50 μmol/L: 37°C
Experimental: as §2, §3
as §4, with “40°C.” for “40°C. Chromatographic separation was monitored by photodiode array detector at 238 nm with an injection volume of 20 μL.”

[3] = Hydrolysis of the lactone form of statins in DMEM culture medium of modified pH; format: physicochemical; settings: 37°C
Experimental: as §1, §2
Fully validated HPLC-UV methods were used to determine the concentrations of the lactone and the corresponding hydroxy acid forms of simvastatin and pravastatin after interconversion studies in human plasma, PBS, and DMEM culture medium of different pH. Samples for HPLC analysis were prepared by protein precipitation followed by liquid-liquid extraction. A 100 μL of human plasma or DMEM samples were pipetted into 1.5 mL Eppendorf tubes, and 50 μL of ammonium acetate buffer (100 mmol/L, pH 4.5) along with 10 μL of internal standard solution (4,4-dichlorodiphenyltrichloroethane [DDT] or griseofulvin 100 μg/mL for simvastatin and pravastatin containing samples, respectively) was added, and samples were vortex mixed for 30 seconds. Proteins were precipitated by the addition of 300 μL of chilled ACN, and samples were vortex mixed for 1 minute and then centrifuged at 900g for 10 minutes at 4°C. […]
HPLC analysis was performed using Waters Alliance 2965 separation module equipped with Waters 996 Photodiode Array Detector and integrated autosampler. […] Chromatographic separation was monitored by photodiode array detector at 238 nm with an injection volume of 20 μL.

[4] = system: undifferentiated C2C12 cells; experiment: Cellular uptake of statins by undifferentiated C2C12 cells in medium of altered pH; format: cell-based, mouse; settings: 1 μmol/L, LC MS/MS
Experimental: (§5) Samples temperature was kept at 4°C, and column temperature was set at 40°C.

[5] = system: differentiated C2C12 cells; experiment: Cellular uptake of statins by differentiated C2C12 cells in medium of altered pH; format: cell-based, mouse; settings: for intracellular levels of pravastatin: 1 μmol/L, LC MS/MS
Experimental: as §5

[6] = system: undifferentiated C2C12 cells; experiment: MTT cytotoxicity in undifferentiated C2C12 cells in medium of different pH; format: cell-based; settings: Mus musculus, 72 hours, read-out: IC50 values of statins
Experimental: (§6) The effect of medium pH alteration on the cytotoxicity of statins was evaluated by MTT and LDH cytotoxicity assays. Both undifferentiated and differentiated C2C12 cells were used in these studies. […] Before starting treatment, the medium was replaced by a fresh one with modified pH (6.8, 7.4, and 7.8). […] Positive control samples with 100% cell death were obtained by treating cells with 1% Triton X-100. Produced formazan crystals were dissolved in DMSO, and the absorbance was measured at 570 nm using EnVision Multilabel Plate Reader (PerkinElmer). Results were expressed as percentage of the control, and IC50 was calculated using prism 6 (GraphPad Software Inc).

[7] = system: differentiated C2C12 cells; experiment: MTT cytotoxicity in differentiated C2C12 cells in medium of different pH; format: cell-based; settings: Mus musculus, acidic medium (pH 6.8), 72 hours, read-out: IC50 values of statins
Experimental: as §6

half-life at 50 μmol/L ([1]; pH 6.8, 50 μmol/L): 21.2 ± 1.75 h | half-life at 50 μmol/L ([1]; pH 7.0, 50 μmol/L): 13 ± 1.38 h | half-life at 50 μmol/L ([1]; pH 7.2, 50 μmol/L): 9.36 ± 1.57 h | half-life at 50 μmol/L ([1]; pH 7.4, 50 μmol/L): 6.89 ± 0.41 h | half-life at 50 μmol/L ([1]; pH 7.6, 50 μmol/L): 5.59 ± 0.49 h | half-life at 50 μmol/L ([1]; pH 7.8, 50 μmol/L): 4.98 ± 0.44 h | proportion of lactone converted to the hydroxy acid form ([2]; alkaline pH): ~99% | half-life at 50 μmol/L ([2]; pH 6.8, 50 μmol/L): 8.84 ± 0.31 h | half-life at 50 μmol/L ([2]; pH 7.0, 50 μmol/L): 7.39 ± 0.22 h | half-life at 50 μmol/L ([2]; pH 7.2, 50 μmol/L): 6.61 ± 0.95 h | half-life at 50 μmol/L ([2]; pH 7.4, 50 μmol/L): 6.85 ± 0.54 h | proportion of lactone converted to the hydroxy acid form ([2]; physiological pH): ~98% | half-life at 50 μmol/L ([3]; pH 6.8, 50 μmol/L): 17.3 ± 4 h | half-life at 50 μmol/L ([3]; pH 7.2, 50 μmol/L): 11.9 ± 2.71 h | half-life at 50 μmol/L ([3]; pH 7.4, 50 μmol/L): 9.72 ± 1.42 h | half-life at 50 μmol/L ([3]; pH 7.8, 50 μmol/L): 10.7 ± 0.81 h | intracellular levels of pravastatin [4]: below the limit of quantification | intracellular levels of pravastatin [5]: below the limit of quantification
SMILES: CC[C@H](C)C(=O)O[C@H]1C[C@H](O)C=C2C=C[C@H](C)[C@H](CC[C@@H]3C[C@@H](O)CC(=O)O3)[C@H]21 [PVL, pravastatin lactone]

increase in uptake at acidic extracellular pH ([5]; 1 μmol/L SVA): more than 2 folds | reduction in uptake under alkaline pH ([5]; 1 μmol/L SVA): approximately 50%
SMILES: CCC(C)(C)C(=O)O[C@H]1C[C@@H](C)C=C2C=C[C@H](C)[C@H](CC[C@@H](O)C[C@@H](O)CC(=O)O)[C@H]21 [SVA, simvastatin hydroxy acid ammonium salt]
IC50 ([6]; acidic medium (pH 6.8)): 2.22 ± 0.04 µM | IC50 ([6]; alkaline medium (pH 7.8)): 16.9 ± 0.48 µM | IC50 ([6]; neutral medium (pH 7.4)): 4.35 ± 0.09 µM | IC50 [7]: 65.4 ± 2.69 µM

intracellular levels of pravastatin [4]: below the limit of quantification | intracellular levels of pravastatin [5]: below the limit of quantification
SMILES: CC[C@H](C)C(=O)O[C@H]1C[C@H](O)C=C2C=C[C@H](C)[C@H](CC[C@@H](O)C[C@@H](O)CC(=O)O)[C@H]21 [PVA, pravastatin hydroxy acid sodium]

Source: paper PMC4967449, “The role of acid-base imbalance in statin-induced myotoxicity” (Translational Research, 2016)
